Assay [1] has as its system Normal human epidermal melanocytes. Briefly: Melanin synthesis-promoting effect in normal human melanocytes (absorbance at 475 nm of NaOH lysate). In kind it is cell-based. The following applies: cultured for 6 days, relative to untreated group as 100%. The procedure:
Normal human epidermal melanocytes (GIBCO™, ThermoFisher Scientific, USA) were treated with fructose 1,6-bisphosphate at 0 (untreated group), 0.1, 1, 10 or 100 ppm and then cultured for 6 days. After the culturing, the cells were lysed with 1 N NaOH and absorbance was measured at 475 nm. Relative melanin production was represented with respective to the absorbance of the untreated group not treated with fructose 1,6-bisphosphate as 100%. A higher absorbance means a higher melanin content.

The subject of the next assay is human hair follicles. Put plainly: Effect of preventing gray hair and promoting black hair in cultured human hair follicles damaged with hydrogen peroxide (Fontana-Masson staining of melanin). Conditions: 100 ppm together with 1000 μM hydrogen peroxide, cultured for 3 days, FIG. 3. In kind it is cell-based. The method, then: Occipital scalp tissue was obtained from a person who received hair follicle transplantation surgery due to hair loss. Hair follicle samples were isolated from the obtained occipital scalp tissue using a microscope. A total of 15 hair follicle samples were prepared for 3 groups, with 5 samples per each group. The hair follicle samples were cultured on a 24-well plate (Nunc, Wiesbaden, Germany) containing 500 μL of a culture medium, with 5 samples per well. As the culture medium, William's E medium (GIBCO, NY, USA) containing 2 mM L-glutamine (PAA, Coelbe, Germany), 10 μg/mL insulin, 10 ng/mL hydrocortisone (Sigma, St Louis, Mo.), 0.1% Fungizone (GIBCO, NY, USA), 10 μg/mL streptomycin and 100 U/mL penicillin (GIBCO, NY, USA) was used. After simultaneously treating with hydrogen peroxide and a fructose 1,6-bisphosphate trisodium salt (FBP-Na3H) at 1000 μM and 100 ppm, respectively, the samples were cultured for 3 days. For comparison, control groups were treated with 1000 μM hydrogen peroxide (H2O2) only or with neither hydrogen peroxide nor the fructose 1,6-bisphosphate trisodium salt. After the treatment, the sample was fixed with formalin, washed with water, dehydrated with alcohol and xylene, and then embedded in paraffin according to a common tissue-processing procedure. […]

For `O=C(COP(=O)(O)O)[C@@H](O)[C@H](O)[C@H](O)COP(=O)(O)O` [fructose 1,6-bisphosphate], the “Relative melanin production (effect of promoting melanin production in melanocytes)” value is recorded as “exhibits the effect of promoting melanin production in melanocytes” in assay [1] (0.1, 1, 10 or 100 ppm, FIG. 1 and FIG. 2); “significantly high” in assay [1] (100 ppm treatment group).

Regarding `O=C(COP(=O)([O-])[O-])[C@@H](O)[C@H](O)[C@H](O)COP(=O)([O-])O.[Na+].[Na+].[Na+]` [fructose 1,6-bisphosphate trisodium salt], the “Melanin production in human hair follicles (Fontana-Masson staining)” value with human hair follicles is reported as “promoting melanin production in human hair follicles”. The “Prevention of decreased melanin production in hair bulbs due to hydrogen peroxide damage (Fontana-Masson staining)” value in the assay with human hair follicles (compared with H2O2 only) was “preventing decreased melanin production in hair bulbs due to damage caused by hydrogen peroxide”.

Source of the values: patent US12090221B2, “Composition for preventing gray hair, promoting black hair and preventing, improving or treating vitiligo or hypochromatism comprising fructose 1,6-bisphosphate or salt, solvate, stereoisomer or hydrate thereof as active ingredient” (AMOREPACIFIC CORPORATION, priority 2021, dated 2024).
